Structures are written as SMILES. Read-outs that look alike come from different tables or passages of the source.

This data set can be described thus: PP-LFER solute descriptor determination from GC retention and partition coefficient data. Type of data set: physicochemical. The settings on record: for Solute descriptor S (dipolarity/polarizability parameter): final adjusted value, shared within a PFAS group. The source says: The GC columns used were, from low to high polarity, HP-5ms Ultra Inert (poly[5% phenyl/95% methyl]siloxane equivalent; Agilent Technologies, Santa Clara, CA), DB-200 (poly[35% trifluoropropyl/65% methyl]siloxane; Agilent Technologies), DB-225ms (poly[50% cyanopropylphenyl/50% methyl]siloxane equivalent; Agilent Technologies), and SolGel-WAX (polyethylene glycol; Trajan, Ringwood, Australia). Column dimensions were all 30 m × 0.25 mm i.d. with a coating thickness of 0.25 μm.
The method for GC retention time measurements follows that of a previous study.[18] Briefly, a 7890A/5975C GC/MS instrument (Agilent Technologies) equipped with an MPS2 autosampler and CIS4 injector (Gerstel, Mülheim an der Ruhr, Germany) was used for all measurements. For each column, isothermal retention times were measured at four temperatures in the range of 30–120 °C to cover all target compounds. The temperature at the injector and transfer line was fixed at 120 °C. The carrier gas was He at a flow rate of 1.2 mL/min. Compounds were introduced into the GC by injecting either headspace (100–250 μL) above the pure compound or solution in acetone (1 μL). Split injections were performed with a split ratio of 20–250. Column dead time (t0) was determined by injecting air and measuring Ar (m/z 40). From the measured retention time (t), the retention factor (k) was calculated as k = (t–t0)/t0. Measurements with t < t0 + 0.1 min were considered too short and discarded. For each column and temperature, k values were obtained for 29–52 PFAS and 29–48 reference compounds.
The standard procedure for solute descriptor determination was as follows. First, the system parameters in eq 1 were calibrated for each column (or partition system) and temperature by MLR using log k (or log K) data and solute descriptors for reference compounds. Dimethylformamide, 1-pentylamine, dimethylsulfoxide, and dodecamethylcyclohexasiloxane (D6) were removed from the log k data sets, because they frequently appeared as outliers (>3 SD) of the PP-LFER model fit. Reference data sets for hexadecane/water partition coefficients (KHxd/w),[21]Kow,[22] and octanol/air partition coefficients (Koa)[23] were taken from the cited references and amended with data for organosilicon compounds.[24],[25] Similar to PFAS, organosilicon compounds have weak van der Waals interaction properties[9] and it may be beneficial to include them in reference data sets. The solute descriptors for PFAS were then back-calculated by using the calibrated PP-LFER equations. Of the five descriptors, V can be calculated from the molecular structure[26] (note: the fragment value for F from Goss et al.[11] was used), and L was available for the PFAS studied.[18] Thus, the left side of eq 2 was known, and MLR was performed to obtain S, A, and B on the right side. [drawing 2] 2 To determine the three descriptors, a minimum of three k and K data are required for a given PFAS compound. The data used here were: k measured for 60 PFAS in this study, KHxd/w for 21 PFAS,[5]Kow for 12 PFAS (see the Results and Discussion section), and Koa for 3 PFAS.[11]
Key to the accurate determination of the polar interaction descriptors is the availability of K data for partition systems with water as a partition phase because water is a strong H-bond donor and acceptor phase and thus the corresponding K values are sensitive to the H-bonding properties of the solute.[27] In particular, at least one solvent/water or air/water partition coefficient is required to determine B because there is no commonly used GC phase that is a significant H-bond donor. In the data set, KHxd/w is sensitive to both A and B and Kow is sensitive to B. However, KHxd/w and Kow data are not available for all PFAS. To increase the number of PFAS for which descriptors can be determined, the following assumptions were made. […]

Setting [1] is: 25 °C, updated in the iterative calculation.

`CN(CCO)S(=O)(=O)C(F)(F)C(F)(F)C(F)(F)C(F)(F)C(F)(F)C(F)(F)C(F)(F)C(F)(F)F` [MeFOSE, N-Methylperfluorooctanesulfonamidoethanol]: the “Solute descriptor L (logarithmic hexadecane/air partition coefficient, KHxd/air)” value worked out at 5.909 and the “Solute descriptor S (dipolarity/polarizability parameter)” value turned out to be 1.00.

Take `C=CC(F)(F)C(F)(F)C(F)(F)C(F)(F)C(F)(F)C(F)(F)C(F)(F)C(F)(F)F` [8:2 FTO, 1H,1H,2H-Perfluoro-1-decene]: the “Solute descriptor S (dipolarity/polarizability parameter)” value was determined as 0.11. In addition, the “Solute descriptor L (logarithmic hexadecane/air partition coefficient, KHxd/air)” value under setting [1] is listed as 2.504.

With `C=CC(=O)OCCC(F)(F)C(F)(F)C(F)(F)C(F)(F)C(F)(F)C(F)(F)C(F)(F)C(F)(F)C(F)(F)C(F)(F)F` [10:2 FTAC, 1H,1H,2H,2H-Perfluorododecyl acrylate], the “Solute descriptor L (logarithmic hexadecane/air partition coefficient, KHxd/air)” value was found to be 5.221 and the “Solute descriptor S (dipolarity/polarizability parameter)” value is 0.54.

`C=C(C)C(=O)OCCC(F)(F)C(F)(F)C(F)(F)C(F)(F)C(F)(F)C(F)(F)C(F)(F)C(F)(F)F` [8:2 FTMAC, 1H,1H,2H,2H-Perfluorodecyl methacrylate]: the “Solute descriptor L (logarithmic hexadecane/air partition coefficient, KHxd/air)” value is on record as 5.115 and the “Solute descriptor S (dipolarity/polarizability parameter)” value stood at 0.53.

For `C=C(C)C(=O)OCCC(F)(F)C(F)(F)C(F)(F)C(F)(F)C(F)(F)C(F)(F)C(F)(F)C(F)(F)C(F)(F)C(F)(F)F` [10:2 FTMAC, 1H,1H,2H,2H-Perfluorododecyl methacrylate], the “Solute descriptor L (logarithmic hexadecane/air partition coefficient, KHxd/air)” value was 5.671 and the “Solute descriptor S (dipolarity/polarizability parameter)” value stood at 0.53.

Consider `FC(F)(F)C(F)(F)C(F)(F)C(F)(F)C(F)(F)C(F)(F)C(F)(F)C(F)(F)C(F)(F)C(F)(F)CCI` [10:2 FTI, 1H,1H,2H,2H-Perfluorododecyl iodide], for which the “Solute descriptor L (logarithmic hexadecane/air partition coefficient, KHxd/air)” value worked out at 5.020 and the “Solute descriptor S (dipolarity/polarizability parameter)” value was 0.32.

Regarding `FC(F)(F)C(F)(F)C(F)(F)C(F)(F)C(F)(F)C(F)(F)C(F)(F)I` [PFHpI, Perfluoroheptyl iodide], the “Solute descriptor S (dipolarity/polarizability parameter)” value turned out to be 0.07. Further, the “Solute descriptor L (logarithmic hexadecane/air partition coefficient, KHxd/air)” value under setting [1] is listed as 2.792.

Consider `FC(F)(F)C(F)(F)C(F)(F)C(F)(F)C(F)(F)C(F)(F)C(F)(F)C(F)(F)C(F)(F)F` [PFN, Perfluorononane], for which the “Solute descriptor S (dipolarity/polarizability parameter)” value was -0.19. Under setting [1], the “Solute descriptor L (logarithmic hexadecane/air partition coefficient, KHxd/air)” value is reported as 1.571.

In the case of `FC(F)(F)C(F)(F)C(F)(F)C(F)(F)CCI` [4:2 FTI, 1H,1H,2H,2H-Perfluorohexyl iodide], the “Solute descriptor S (dipolarity/polarizability parameter)” value is 0.32. Also, under setting [1], the “Solute descriptor L (logarithmic hexadecane/air partition coefficient, KHxd/air)” value is listed as 3.325.

On to `CCN(CCO)S(=O)(=O)C(F)(F)C(F)(F)C(F)(F)C(F)(F)C(F)(F)C(F)(F)F` [EtFHxSE, N-Ethylperfluorohexanesulfonamidoethanol], for which the “Solute descriptor S (dipolarity/polarizability parameter)” value came out at 1.00. Moreover, under setting [1], the “Solute descriptor L (logarithmic hexadecane/air partition coefficient, KHxd/air)” value was 5.685.

As to `CCNS(=O)(=O)C(F)(F)C(F)(F)C(F)(F)C(F)(F)C(F)(F)C(F)(F)C(F)(F)C(F)(F)F` [EtFOSA, N-Ethylperfluorooctanesulfonamide], the “Solute descriptor L (logarithmic hexadecane/air partition coefficient, KHxd/air)” value worked out at 4.967 and the “Solute descriptor S (dipolarity/polarizability parameter)” value turned out to be 0.88.

Regarding `C=C(C)C(=O)OCCC(F)(F)C(F)(F)C(F)(F)C(F)(F)F` [4:2 FTMAC, 1H,1H,2H,2H-Perfluorohexyl methacrylate], the “Solute descriptor S (dipolarity/polarizability parameter)” value amounted to 0.53. Moreover, under setting [1], the “Solute descriptor L (logarithmic hexadecane/air partition coefficient, KHxd/air)” value is given as 3.990.

On to `C=CC(=O)OCCC(F)(F)C(F)(F)C(F)(F)C(F)(F)C(F)(F)C(F)(F)C(F)(F)C(F)(F)F` [8:2 FTAC, 1H,1H,2H,2H-Perfluorodecyl acrylate], for which the “Solute descriptor S (dipolarity/polarizability parameter)” value is reported as 0.54. In addition, the “Solute descriptor L (logarithmic hexadecane/air partition coefficient, KHxd/air)” value under setting [1] is on record as 4.661.

On to `C=CC(F)(F)C(F)(F)C(F)(F)C(F)(F)C(F)(F)C(F)(F)F` [6:2 FTO, 1H,1H,2H-Perfluoro-1-octene], for which the “Solute descriptor S (dipolarity/polarizability parameter)” value was 0.11. Also, under setting [1], the “Solute descriptor L (logarithmic hexadecane/air partition coefficient, KHxd/air)” value was 2.022.

As to `FC(F)(F)C(F)(F)C(F)(F)C(F)(F)C(F)(F)C(F)(F)C(F)(F)C(F)(F)C(F)(F)C(F)(F)C(F)(F)C(F)(F)F` [PFDoD, Perfluorododecane], the “Solute descriptor L (logarithmic hexadecane/air partition coefficient, KHxd/air)” value is recorded as 2.362 and the “Solute descriptor S (dipolarity/polarizability parameter)” value is recorded as -0.19.

As to `NS(=O)(=O)C(F)(F)C(F)(F)C(F)(F)C(F)(F)C(F)(F)C(F)(F)C(F)(F)C(F)(F)F` [PFOSA, Perfluorooctanesulfonamide], the “Solute descriptor L (logarithmic hexadecane/air partition coefficient, KHxd/air)” value was determined as 4.744 and the “Solute descriptor S (dipolarity/polarizability parameter)” value came to 0.96.

In the case of `CCNS(=O)(=O)C(F)(F)C(F)(F)C(F)(F)C(F)(F)C(F)(F)C(F)(F)F` [EtFHxSA, N-Ethylperfluorohexanesulfonamide], the “Solute descriptor S (dipolarity/polarizability parameter)” value stood at 0.88. The “Solute descriptor L (logarithmic hexadecane/air partition coefficient, KHxd/air)” value under setting [1] is recorded as 4.400.

As to `CNS(=O)(=O)C(F)(F)C(F)(F)C(F)(F)C(F)(F)C(F)(F)C(F)(F)F` [MeFHxSA, N-Methylperfluorohexanesulfonamide], the “Solute descriptor S (dipolarity/polarizability parameter)” value was determined as 0.88. Also, the “Solute descriptor L (logarithmic hexadecane/air partition coefficient, KHxd/air)” value under setting [1] is recorded as 4.135.

On to `C=CC(F)(F)C(F)(F)C(F)(F)C(F)(F)C(F)(F)C(F)(F)C(F)(F)C(F)(F)C=C` [1,8-DVPFO, 1,8-Divinylperfluorooctane], for which the “Solute descriptor S (dipolarity/polarizability parameter)” value came out at 0.44. Besides, the “Solute descriptor L (logarithmic hexadecane/air partition coefficient, KHxd/air)” value under setting [1] is 3.927.

In the case of `OCC(F)(F)C(F)(F)C(F)(F)F` [3:1 FTOH, 1H,1H-Perfluorobutan-1-ol], the “Solute descriptor S (dipolarity/polarizability parameter)” value is listed as 0.30. Besides, the “Solute descriptor L (logarithmic hexadecane/air partition coefficient, KHxd/air)” value under setting [1] is recorded as 1.542.

On to `OCCC(F)(F)C(F)(F)C(F)(F)C(F)(F)C(F)(F)C(F)(F)C(F)(F)C(F)(F)C(F)(F)C(F)(F)C(F)(F)C(F)(F)F` [12:2 FTOH, 1H,1H,2H,2H-Perfluorotetradecan-1-ol], for which the “Solute descriptor L (logarithmic hexadecane/air partition coefficient, KHxd/air)” value is recorded as 4.682 and the “Solute descriptor S (dipolarity/polarizability parameter)” value is 0.35.

In the case of `FC(OC(F)(F)C(F)(OC(F)(F)C(F)(OC(F)(F)C(F)(F)C(F)(F)F)C(F)(F)F)C(F)(F)F)C(F)(F)F` (centres unmarked) [FE-E3, 1,1,1,2,2,3,3-Heptafluoro-3-[(1,1,1,2,3,3-hexafluoro-3-{[1,1,1,2,3,3-hexafluoro-3-(1,2,2,2-tetrafluoroethoxy)-2-propanyl]oxy}-2-propanyl)oxy]propane], the “Solute descriptor L (logarithmic hexadecane/air partition coefficient, KHxd/air)” value was 1.899 and the “Solute descriptor S (dipolarity/polarizability parameter)” value is -0.33.

As to `CNS(=O)(=O)C(F)(F)C(F)(F)C(F)(F)C(F)(F)C(F)(F)C(F)(F)C(F)(F)C(F)(F)F` [MeFOSA, N-Methylperfluorooctanesulfonamide], the “Solute descriptor S (dipolarity/polarizability parameter)” value amounted to 0.88. In addition, under setting [1], the “Solute descriptor L (logarithmic hexadecane/air partition coefficient, KHxd/air)” value is 4.703.

As to `FC(F)(F)C(F)(F)C(F)(F)C(F)(F)C(F)(F)C(F)(F)I` [PFHxI, Perfluorohexyl iodide], the “Solute descriptor S (dipolarity/polarizability parameter)” value was 0.07. Moreover, the “Solute descriptor L (logarithmic hexadecane/air partition coefficient, KHxd/air)” value under setting [1] is on record as 2.508.

Regarding `FC(F)(F)C(F)(F)C(F)(F)C(F)(F)N(C(F)(F)C(F)(F)C(F)(F)C(F)(F)F)C(F)(F)C(F)(F)C(F)(F)C(F)(F)F` [PFTBA, Perfluorotributyl amine], the “Solute descriptor S (dipolarity/polarizability parameter)” value is listed as -0.23. Under setting [1], the “Solute descriptor L (logarithmic hexadecane/air partition coefficient, KHxd/air)” value is on record as 2.302.

(Values after paper PMC10653080, “Intermolecular Interactions, Solute Descriptors, and Partition Properties of Neutral Per- and Polyfluoroalkyl Substances (PFAS)” (Environmental Science & Technology, 2023).)
